The record followed here is US20180235234A1, “COMPOSITIONS COMPRISING A BIOLOGICAL CONTROL AGENT AND AN INSECTICIDE” (priority 2012, published 2018).

Each structure is given as a SMILES string.

What all share (format): in vivo
Test [1] deals with Spodoptera frugiperda. Briefly: Spodoptera frugiperda spray test, cotton leaves. The following applies: mortality. The protocol:
(§1) Spodoptera frugiperda—Spray Test
To produce a suitable preparation of active compound, 1 part by weight of active compound was mixed with the stated amount of solvent and was diluted with water, containing an emulsifier concentration of 1000 ppm, to the desired concentration. To produce a suitable preparation of a spore suspension the spores were diluted with emulsifier-containing water to the desired concentration. Further test concentrations were prepared by dilution with emulsifier-containing water. Ammonium salt and/or penetration enhancer in a dosage of 1000 ppm were added if necessary.
Cotton leaves (Gossypium hirsutum) were treated by being sprayed with the preparation of the active compound of the desired concentration and were infested with caterpillars of the fall army worm (Spodoptera frugiperda).
After the specified period of time % mortality was determined. 100% means all the caterpillars were killed, and 0% means none of the caterpillars were killed.

Another test deals with Myzus persicae. Briefly: Myzus persicae spray test (MYZUPE), Chinese cabbage leaf disks. The conditions noted are these: mortality. The protocol: (§2) For all examples the efficiencies of the compositions comprising at least one BCA and at least one specific insecticide has been determined by the “Colby-formula”. The expected efficacy of a given combination of two compounds is calculated as follows (see Colby, S. R., “Calculating Synergistic and antagonistic Responses of Herbicide Combinations”, Weeds 15, pp. 20-22, 1967): If • X is the efficacy expressed in % mortality of the untreated control for test compound A at a concentration of m ppm respectively m g/ha, • Y is the efficacy expressed in % mortality of the untreated control for test compound B at a concentration of n ppm respectively n g/ha, • E is the efficacy expressed in % mortality of the untreated control using the mixture of A and B at m and n ppm respectively m and n g /ha, then
(§3) If the observed insecticidal efficacy of the combination is higher than the one calculated as “E”, then the combination of the two compounds is more than additive, i.e., there is a synergistic effect.
Myzus persicae—Spray Test (MYZUPE)
To produce a suitable preparation of active compound, 1 part by weight of active compound is mixed with the stated amount of solvent and emulsifier, and the concentrate is diluted with emulsifier-containing water to the desired concentration. To produce a suitable preparation of a spore suspension the spores are diluted with emulsifier-containing water to the desired concentration.
Chinese cabbage (Brassica pekinensis) leaf—disks infected with all instars of the green peach aphid (Myzus persicae), are sprayed with a preparation of the active ingredient of the desired concentration.
After the specified period of time, mortality in % is determined. 100% means all aphids have been killed; 0% means none of the aphids have been killed. The mortality values determined thus are recalculated using the Colby-formula (see above).

Test [2] relates to Spodoptera frugiperda. As to the kind of experiment: Spodoptera frugiperda spray test, maize leaf sections. The conditions noted are these: mortality. Here is the method:
as §2, §3, §1
To produce a suitable preparation of the active compound, 1 part by weight of active compound is mixed with the stated amount of solvent and emulsifier, and the concentrate is diluted with emulsifier-containing water to the desired concentration. To produce a suitable preparation of a spore suspension the spores are diluted with emulsifier-containing water to the desired concentration.
Maize (Zea mais) leaf sections are sprayed with a preparation of the active ingredient of the desired concentration. Once dry, the leaf sections are infested with fall armyworm larvae (Spodoptera frugiperda).
After the specified period of time, mortality in % is determined. 100% means all caterpillars have been killed and 0% means none of the caterpillars have been killed. The mortality values determined thus are recalculated using the Colby-formula (see above).

Another test concerns Aphis gossypii. As to the kind of experiment: Aphis gossypii spray test, cotton leaves. The conditions noted are these: 2 ppm; mortality. Here is the method:
as §2, §3
Aphis gossypii—Spray Test […]
After the specified period of time, the mortality in % is determined. […] The mortality values determined thus are recalculated using the Colby-formula (see above).

Another test deals with Phaedon cochleariae. As to the kind of experiment: Phaedon cochleariae spray test, Chinese cabbage leaf disks. The conditions noted are these: 0.16 g ai/ha; mortality. The protocol:
as §2, §3
Phaedon cochleariae—Spray Test […]
After the specified period of time, mortality in % is determined. […] The mortality values determined thus are recalculated using the Colby-formula (see above).

`Cc1c(COC(=O)[C@@H]2[C@H](/C=C(\Cl)C(F)(F)F)C2(C)C)cccc1-c1ccccc1` (racemic) [Bifenthrin]: in the test on Spodoptera frugiperda [1] (0.5 ppm), the “Efficacy in % after 3 days” value is 0% and the “Efficacy in % after 6 days” value amounted to 20%. In the test with Spodoptera frugiperda [1] (2 ppm), the “Efficacy in % after 2 days” value worked out at 20%. Also, the “Efficacy in % after 2 days” value in the test with Spodoptera frugiperda [1] (8 ppm) is on record as 60%.
Consider `Cc1c(F)c(F)c(COC(=O)[C@@H]2[C@H](/C=C(\Cl)C(F)(F)F)C2(C)C)c(F)c1F` (racemic) [Tefluthrin (I134), Tefluthrin], for which the “Efficacy in % after 6 d” value in the test on Myzus persicae (2 g/ha) is listed as 0%; in the test with Spodoptera frugiperda [2] (0.4 g ai/ha) it was 17%; with Spodoptera frugiperda [2] (4 g ai/ha), 50%. Further, in the test with Spodoptera frugiperda [2] (10 g ai/ha), the “Efficacy in % after 2 d” value worked out at 0%. In addition, the “Efficacy in % after 1 d” value with Aphis gossypii worked out at 15%.
For the compound `CC1(C)[C@H](C(=O)O[C@H](C#N)c2cccc(Oc3ccccc3)c2)[C@@H]1C=C(Br)Br` [Deltamethrin (I116), Deltamethrin], in the test on Myzus persicae (0.032 g/ha), the “Efficacy in % after 6 d” value worked out at 0%.
Take `CC1(C)C(C=C(Cl)Cl)C1C(=O)OC(C#N)c1ccc(F)c(Oc2ccccc2)c1` (stereo not drawn) [ß-Cyfluthrin (I106), beta-Cyfluthrin]: the “Efficacy in % after 1 d” value in the test with Myzus persicae (0.16 g/ha) was determined as 0%. The “Efficacy in % after 6 d” value was determined as 0% in the test on Myzus persicae (0.16 g/ha); 0% in the test with Myzus persicae (2 g/ha); 0% with Phaedon cochleariae; 0% with Spodoptera frugiperda [2] (0.16 g ai/ha); 33% in the test with Spodoptera frugiperda [2] (0.4 g ai/ha).
